The record followed here is ChEMBL document CHEMBL3576846, “Privileged Structures Meet Human T-Cell Leukemia Virus-1 (HTLV-1): C2-Symmetric 3,4-Disubstituted Pyrrolidines as Nonpeptidic HTLV-1 Protease Inhibitors” (J Med Chem, 2015).

The assay can be described thus: Inhibition of HTLV-1 protease using (RE(Edans)TKVLVVQPK(Dabsyl)R) as substrate by fluorescence assay. Set-up: species or system Human T-cell leukemia virus type I.
The Ki is the equilibrium dissociation constant of an inhibitor or competing ligand from its target. Low readings indicate higher affinity, high ones lower affinity. In the case of `C=C(C)CN([C@H]1CNC[C@@H]1N(CC(=C)C)S(=O)(=O)c1ccccc1)S(=O)(=O)c1ccccc1`, the affinity, expressed as Ki, was 17.8 µM.
The same measure for `C=CCN([C@H]1CNC[C@@H]1N(CC=C)S(=O)(=O)c1ccccc1)S(=O)(=O)c1ccccc1`: 172 µM; for `CC(C)=CCN([C@H]1CNC[C@@H]1N(CC=C(C)C)S(=O)(=O)c1ccccc1)S(=O)(=O)c1ccccc1`: 11.6 µM.
`Cc1ccccc1S(=O)(=O)N(Cc1ccccc1)[C@H]1CNC[C@@H]1N(Cc1ccccc1)S(=O)(=O)c1ccccc1C` came in with a Ki of 2.6 µM.
Then `O=S(=O)(c1ccccc1)N(Cc1ccc(C(F)(F)F)cc1)[C@H]1CNC[C@@H]1N(Cc1ccc(C(F)(F)F)cc1)S(=O)(=O)c1ccccc1`, with above 250 µM; and `O=S(=O)(c1ccccc1)N(Cc1ccc(I)cc1)[C@H]1CNC[C@@H]1N(Cc1ccc(I)cc1)S(=O)(=O)c1ccccc1`, with above 200 µM.
Then `O=S(=O)(c1ccccc1Cl)N(Cc1ccccc1)[C@H]1CNC[C@@H]1N(Cc1ccccc1)S(=O)(=O)c1ccccc1Cl`, with 2.4 µM.
On to `O=S(=O)(c1ccccc1)N(Cc1ccccc1)[C@H]1CNC[C@@H]1N(Cc1ccccc1)S(=O)(=O)c1ccccc1`, for which the Ki was 2 µM.
Molecule `O=[N+]([O-])c1ccc(S(=O)(=O)N(Cc2ccccc2)[C@H]2CNC[C@@H]2N(Cc2ccccc2)S(=O)(=O)c2ccc([N+](=O)[O-])cc2)cc1` displayed an inhibition constant (Ki) of 7.9 µM.
Then `Nc1ccc(S(=O)(=O)N(Cc2ccccc2)[C@H]2CNC[C@@H]2N(Cc2ccccc2)S(=O)(=O)c2ccc(N)cc2)cc1`, with 0.015 µM.
